The text below walks through data of patent US9464326B2, “Total and phosphorylated IL-1 receptor-associated kinase-1 and IL-1 receptor-associated kinase-4 as a biomarker for cancer progression and chemotherapy resistance” (University of Maryland, Baltimore, priority 2012, dated 2016).

Experiment [1] deals with Hut 102. Kind of experiment: Proliferation (3H-thymidine) of Hut 102. In kind it is cell-based, human. The conditions noted are these: 3H-thymidine uptake, 72 h. The text has this:
(§1) CCRF-CEM, CEM/C1, CEM/C2, CEM-C7, Jurkat, Loucy, Molt-4, HSB-2, SUP-T1, Hut 78, HH, Hut 102, MO, and H9 T-leukemia and T-lymphoma cell lines were purchased from the American Type Culture Collection (Manassas, Va., USA). All of the cell lines were initially expanded and cryopreserved within one month of receipt. Cells were typically used for 6 months at which time a fresh vial of cryopreserved cells was used. Total T cells from healthy donors were isolated via negative selection followed by positive selection using a CD3+ selection kit (Invitrogen, Carlsbad, Calif.). T cells were isolated from patients with T-ALL bone marrow or peripheral blood samples containing more than 70% leukemia cells using a CD2+ isolation kit (STEMCELL Technologies, Vancouver, Canada). All tissues were collected under institutional IRB-approved protocols and all participants gave written informed assent/consent. For in vitro experiments, T-ALL cells were cultured in AIM-V medium supplemented with 20% human AB serum in the presence of recombinant human stem cell factor (50 ng/mL; Amgen, Thousand Oaks, Calif.), insulin (20 nM; Sigma-Aldrich, St Louis, Mo., USA) and IL-7 (50 ng/mL; R&D Systems, Minneapolis, Minn., USA). […]
(§2) Cells were cultured in a 96-well plate (Corning Costar, Corning, N.Y., USA) with various concentrations of TLR ligands 1-9, starting at 10 μg/ml, in a final volume of 200 ul. […] After this time point, cells were harvested with a Packard Filter-Mate-96 cell harvester (Perkin Elmer, Waltham, Mass., USA) and counted on Packard Top Count-NXT (Perkin Elmer, Waltham, Mass., USA). Results were expressed as average counts per minute (cpm). […] Forty-eight hours later, proliferation (±SD) was determined by ^3H-thymidine incorporation. Alternatively, apoptosis was measured by flow cytometry after staining cells with Annexin-V (BD Pharmingen, San Diego, Calif., USA) and propidium iodide (Sigma). Cell number was counted under microscopy by staining cells with trypan blue. […]

Experiment [2] deals with SupT1. Nature of the experiment: Proliferation (3H-thymidine) of SupT1. In kind it is cell-based, human. The conditions noted are these: SupT1. The text has this:
(§3) CCRF-CEM, CEM/C1, CEM/C2, CEM-C7, Jurkat, Loucy, Molt-4, HSB-2, SUP-T1, Hut 78, HH, Hut 102, MO, and H9 T-leukemia and T-lymphoma cell lines were purchased from the American Type Culture Collection (Manassas, Va., USA). All of the cell lines were initially expanded and cryopreserved within one month of receipt. Cells were typically used for 6 months at which time a fresh vial of cryopreserved cells was used. Total T cells from healthy donors were isolated via negative selection followed by positive selection using a CD3+ selection kit (Invitrogen, Carlsbad, Calif.). T cells were isolated from patients with T-ALL bone marrow or peripheral blood samples containing more than 70% leukemia cells using a CD2+ isolation kit (STEMCELL Technologies, Vancouver, Canada). All tissues were collected under institutional IRB-approved protocols and all participants gave written informed assent/consent. For in vitro experiments, T-ALL cells were cultured in AIM-V medium supplemented with 20% human AB serum in the presence of recombinant human stem cell factor (50 ng/mL; Amgen, Thousand Oaks, Calif.), insulin (20 nM; Sigma-Aldrich, St Louis, Mo., USA) and IL-7 (50 ng/mL; R&D Systems, Minneapolis, Minn., USA). In other experiments, protein lysate was collected using the Full Moon Biosystems (Sunnyvale, Calif., USA) buffer prior to protein examination by western blot or protein array.
(§4) Cells were cultured in a 96-well plate (Corning Costar, Corning, N.Y., USA) with various concentrations of TLR ligands 1-9, starting at 10 μg/ml, in a final volume of 200 ul. TLR ligands were diluted 2-fold. Cell lines (25-40×10^3/well) were cultured for 54 hours, whereas fresh patient-derived T-ALL cells (200×10^3/well) were cultured for 30 hours prior to adding [^3H]-thymidine for 18 hours. After this time point, cells were harvested with a Packard Filter-Mate-96 cell harvester (Perkin Elmer, Waltham, Mass., USA) and counted on Packard Top Count-NXT (Perkin Elmer, Waltham, Mass., USA). Results were expressed as average counts per minute (cpm). In some experiments CCRF-CEM cells were pre-treated with TLR1-TLR2 ligand (Pam3CysK4; 2.5 ug/ml) for 48 hrs, washed, and then cultured in the presence of varying concentrations of FBS. Forty-eight hours later, proliferation (±SD) was determined by ^3H-thymidine incorporation. Alternatively, apoptosis was measured by flow cytometry after staining cells with Annexin-V (BD Pharmingen, San Diego, Calif., USA) and propidium iodide (Sigma). Cell number was counted under microscopy by staining cells with trypan blue.
(§5) The following TLR ligands were purchased from Invivogen (San Diego, Calif., USA): tripalmitoyl-S-(bis(palmitoyloxy)propyl)-Cys-Ser-(Lys)3-Lys (TLR1-2); Poly I:C (TLR3); ultrapure S. Minnesota Lipopolysaccharide (TLR4); S. typhimurium flagellin (TLR5); FSL-1 (TLR2/6); Imiquimod (TLR7); ssRNA40/Lyovec (TLR8); CpG-ODN 2006 (TLR9).

Experiment [3] has as its system stage IA cutaneous T-lymphoma. The conditions noted are these: topical cream containing 5% Imiquimod; cited from earlier work.
Experiment [4] has as its system CEM-C2. Nature of the experiment: Proliferation (3H-thymidine) of CEM-C2. The conditions noted are these: 3H-thymidine uptake, 72 h. The experiment is classed as cell-based, human.
Description: as §3
as §4, with “blue. […]” for “blue.”

The test system of experiment [5] is Primary T-cells Non-Act. Nature of the experiment: Proliferation (3H-thymidine) of non-activated primary T-cells. In kind it is cell-based, human. The following applies: 3H-thymidine uptake, 72 h.
Description: as §1, §2

Experiment [6] has as its system Primary T-cells Activated. Kind of experiment: Proliferation (3H-thymidine) of activated primary T-cells. In kind it is cell-based, human. The conditions noted are these: Primary T-cells, Activated.
Description: as §3, §4, §5

Experiment [7] concerns Jurkat. Kind of experiment: Proliferation (3H-thymidine) of Jurkat. The experiment is classed as cell-based, human.
Description: as §3
as §4, with “blue. […]” for “blue.”

Experiment [8] has as its system Loucy. Nature of the experiment: Proliferation (3H-thymidine) of Loucy. The experiment is classed as cell-based, human. The conditions noted are these: 3H-thymidine uptake, 72 h.
Description: as §3
as §4, with “blue. […]” for “blue.”

Experiment [9] has as its system H9. Kind of experiment: Proliferation (3H-thymidine) of H9. The experiment is classed as cell-based, human. The conditions noted are these: H9; 3H-thymidine uptake, 72 h.
Description: as §3, §4, §5

The test system of experiment [10] is HSB-2. Kind of experiment: Proliferation (3H-thymidine) of HSB-2. The experiment is classed as cell-based, human.
Description: as §3, §4, §5

In experiment [11] the test system is CCRF-CEM. Nature of the experiment: Proliferation (3H-thymidine) of CCRF-CEM. In kind it is cell-based, human. The conditions noted are these: 3H-thymidine uptake, 72 h.
Description: as §3, §4, §5

Experiment [12] deals with HH. Kind of experiment: Proliferation (3H-thymidine) of HH. In kind it is cell-based, human. The following applies: 3H-thymidine uptake, 72 h.
Description: as §1, §2

In experiment [13] the test system is Hut-78. Nature of the experiment: Proliferation (3H-thymidine) of Hut-78. The experiment is classed as cell-based, human. The following applies: 3H-thymidine uptake, 72 h.
Description: as §1, §2

For experiment [14], the system named is Molt-4. Nature of the experiment: Proliferation (3H-thymidine) of Molt-4. The following applies: 3H-thymidine uptake, 72 h. The experiment is classed as cell-based, human.
Description: as §1, §2

The subject of experiment [15] is CEM-C7. Nature of the experiment: Proliferation (3H-thymidine) of CEM-C7. The conditions noted are these: 3H-thymidine uptake, 72 h. In kind it is cell-based, human.
Description: as §3, §4, §5

In experiment [16] the test system is MO. Nature of the experiment: Proliferation (3H-thymidine) of MO. In kind it is cell-based, human. The conditions noted are these: 3H-thymidine uptake, 72 h.
Description: as §1, §2

The test system of experiment [17] is CEM-C1. Kind of experiment: Proliferation (3H-thymidine) of CEM-C1. In kind it is cell-based, human. The following applies: 3H-thymidine uptake, 72 h.
Description: as §3
as §4, with “blue. […]” for “blue.”

In experiment [18] the test system is A375 melanoma cells. Kind of experiment: A375 melanoma xenograft model. The conditions noted are these: IRAK-1,-4 inhibitor 35 mg/kg intratumorally, vinblastine 0.25 mg/kg i.p.; control 17 days.
Description: (A-B) NSG mice (n=5) were injected subcutaneously with A375 melanoma cells. When tumors reached a size of approximately 50 mm^2 mice remained untreated or injected intraperitoneally with vinblastine mg/kg; administered every 2 days for 10 days), or peritumorally with IRAK-1,-4 inhibitor (35 mg/kg), or vinblastine plus IRAK.-1,-4 inhibitor. Tumor sizes were calculated by measuring perpendicular by longitudinal diameter;*, P<0.05. Mouse survival data were analyzed using the exact log-rank test;*, P<0.05, **P<0.001.
NOD.Cg-Prkdc^scid Il2rg^tmWJZ; SzJ IL2RG (NSG) mice (Jackson Laboratories, Bar Harbor, Me.) were subcutaneously (s.c.) injected with 2.5×10^6 A375 melanoma cells delivered in PBS. […] When tumors reached a size of approximately 50 mm^2 mice were injected intratumorally (i.t.) with 35 mg/kg of IRAK-1,-4 inhibitor or an equal volume of vehicle (DMSO). Mice were intraperitoneally (i.p.) injected with vinblastine (0.25 mg/kg) every 2 days for 5 days starting on the same day that mice received with IRAK-1,-4 inhibitor. Tumor sizes were analyzed using a mixed model approach for repeated measurements and mouse survival data were analyzed with the exact log-rank test.
Experiment [19] concerns A375 melanoma cells. Kind of experiment: Western blot of cleaved PARP and caspase-3. The experiment is classed as cell-based, human. The following applies: single agent alone, 48 hrs, FIG. 8D. As to the method:
FIG. 8. […] (A) A375 and Malme-3M melanoma cells were cultured with or without 2.5 μM of IRAK-1,-4 and in the presence varying concentrations of vinblastine, cisplatin or 5′ Fluorouracil. Forty-eight hours later apoptosis was evaluated by staining cells with annexin-V and propidium iodide and analyzed by flow cytometry. (B) A375 cells were transfected via electroporation with siRNA-IRAK-1,-4. IRAK-1 protein levels were examined by Western blotting. […], A375-psiRNA-hIRAK-1, A375-psiRNA-hIRAK-4, or cells expressing both psiRNA-hIRAK-1 and -4 were cultured in the presence of vinblastine (100 nmol/L) for 48 hours and apoptosis was examined by flow cytometry. (C) A375 melanoma cells were cultured in the presence of vehicle alone (DMSO) or various concentrations of IRAK-1,-4. Forty-eight hours later cell lysates were used to analyze the expression of levels of cleaved PARP or caspase-3 by Western blots. (D) A375 melanoma cells were cultured with or without 2.5 μM of IRAK.-1,-4 and in the presence or absence of vinblastine for 48 hrs. PARP and caspase-3 levels were determined by Western blot.
Total cell extracts were prepared from melanoma cells. […] Melanoma tissue arrays were purchased from US Biomax, Inc (Rockville, Md.). For immunohistochemical staining samples were stained with mouse monoclonal anti-human phosphor-IRAK.-4 antibody (Abnova; dilution, 3.5 μg/ml) or normal mouse serum. Tissue histology sections (5-μm-thick) were deparaffinized, hydrated, heated in boiling 10 mmol/L sodium citrate (pH 6.0), for antigen retrieval, for 30 min and washed in Tris buffer. Peroxide blocking was done with 3% […] in methanol at room temperature for 15 min, followed by 10% fetal bovine serum in TBS-t for 30 min at room temperature. Primary antibody incubation was done overnight at 4° C. Secondary antibody incubation with horse anti-mouse (1:200; Vector Laboratories, Burlingame, Calif.) was done for 1 hr, followed by application of diaminobenzidine chromogen for 5 min. The slides were then counterstained with hematoxylin and topped with a coverslip. IHC specimens were analyzed using “quick score” system in which the intensity of the immunohistochemical reaction was scored by multiplying the intensity 1 (weak), 2 (moderate), and 3 (strong) and the proportion of cells staining positively 0 (<10%), 1 (10-25%), 2 (26-50%), 3 (51-75%) or 4 (>75%).
In general terms: A western blot detects proteins with antibodies after separation by electrophoresis.

On to `CC(C)Cn1cnc2c(N)nc3ccccc3c21` [Imiquimod], for which the “Proliferative effects of TLR ligands” value in experiment [1] was “∘”; in [2] (3H-thymidine uptake, 72 h), “− (reduced proliferation)”; in [4], “∘”; in experiment [5] it was “∘”; in experiment [6] (3H-thymidine uptake, 72 h), “− (reduced proliferation)”; in experiment [7] (3H-thymidine uptake, 72 h), “− (reduced proliferation)”. Also, the “Proliferative effects of TLR ligands” value in experiment [8] is “∘”; in experiment [9] it was “∘”; in experiment [10] (3H-thymidine uptake, 72 h) it was “− (reduced proliferation)”; in experiment [11] it was “∘”; in experiment [12], “∘”; in experiment [13], “∘”. The “Proliferative effects of TLR ligands” value in experiment [14], in [15], in [16] and in [17] was “∘” each time. Besides, the “TLR ligand concentration in parentheses below the symbol” value in experiment [2] (no unit in table (μg/ml)) is listed as “(0.6)”; in experiment [6] (no unit in table (μg/ml)), “(5)”; in experiment [7] (no unit in table (μg/ml)), “(10)”; in experiment [10] (no unit in table (μg/ml)), “(1.2)”. In experiment [3], the treatment outcome is listed as “successfully treated”.

`CC[C@]1(O)C[C@@H]2CN(CCc3c([nH]c4ccccc34)[C@@](C(=O)OC)(c3cc4c(cc3OC)N(C)[C@H]3[C@@](O)(C(=O)OC)[C@H](OC(C)=O)[C@]5(CC)C=CCN6CC[C@]43[C@@H]65)C2)C1` [vinblastine]: the median survival in experiment [18] is 22 days. For the same molecule, the “levels of cleaved PARP and caspase-3” value in [19] is reported as “little effect”.
